In paper PMC10800023 (Human Molecular Genetics, 2023):
Marks after values point to notes of the source that are not given here.

Key:
B10-mdx mice [1] = assay: Diaphragm hydroxyproline assay (Study 2); assay type: in vivo, mouse; details: 4 months
Procedure: To determine muscle damage in B10-mdx mice and to evaluate the effects of the three corticosteroids on muscle, we used the hydroxyproline assay to measure the collagen content in diaphragm muscle tissue, a measure of muscle damage and fibrosis. […] Levels were reduced in mice treated with any of the three corticosteroids (Fig. 6d).
Diaphragm muscles were dissected, weighed, and stored at −80°. Tissues were cut to avoid the tendon(s), and 10 ± 1 mg of tissue was homogenized through sonication. Water and hydrochloric acid (12 M) content were normalized prior to hydrolysis at 120° for 3 h in pressure-tight polypropylene vials. After boiling, the hydrolysates were centrifuged at 10 000 × g for 3 min, and 6-μl triplicates of the hydrolysate were added to clear 96-well plates for evaporation in a 60°C oven overnight. The following day, a hydroxyproline kit (Sigma, cat #MAK008) was used to determine the hydroxyproline content. In each sample and standard well, 100 μl Chloramine T/Oxidation buffer mixture was added, incubated for 5 min at room temperature, and followed with 100 μl of perchloric acid diluted DMAB concentrate. The plate was sealed and incubated in a 60°C oven for 90 min. The 96-well plates were read using a BioTek Epoch 2 Spectrophotometer at an absorbance of 560 nm.

IL-1β = assay: LPS-induced IL-1β in cultured BMDM; assay type: cell-based; details: Mus musculus, corticosteroid overnight, LPS 10 ng/ml 3 h
Text: (§1) The immunosuppressive activity of corticosteroids is in part due to their inhibition of NF-κB-induced cytokines including TNF-α, IL-6, and IL-12. Furthermore, expression of some inflammatory-mediated proteins such as STAT1 is mediated via GREs, and not the NF-κB pathway. We therefore expanded murine bone marrow-derived macrophages (BMDM) in vitro, and after 5 days of culture tested the relative efficacy of different corticosteroids to prevent LPS-induced cytokine secretion.
(§2) BMDM mouse bone marrow derived macrophage (mBMDM) cultures were generated from the femur and tibia from two 7–11-week-old C57BL/6 mice. Briefly, bone marrow cells were carefully flushed out, suspended in ice-cold PBS, and spun down. After the supernatant was removed, the pelleted cells were resuspended in 2 ml (ammonium-Chloride-Potassium) ACK lysis buffer (Thermo Fisher, Cat# A1049201) and incubated for 3–4 min, followed by 14 ml ice-cold PBS, and then spun down. The pelleted cells were resuspended in 43 ml complete media [Roswell Park Memorial Institute (RPMI 1640), Gibco, Cat# 11875-093; 10% heat-inactivated fetal bovine serum (HiFBS), HyClone, Cat# SH30406.02; 1% 2 mM L-glutamine; 1% penicillin-streptomycin, Sigma, Cat# P4333-100ML; 1% MEM NEAA, Gibco, Cat# 11140-050; 1% Na Pyruvate, Gibco, Cat# 11360-070; 55 μM 2-Mercaptoethanol, Gibco, Cat#21985-023]. A total of 25 ng/ml M-CSF was added to the culture. Cells were dispensed as 200 μl per well into a 96-well tissue culture plate and incubated at 37°C, 5% CO2 for 4 days. On Day 5, media were removed and 100 μl fresh complete media containing M-CSF were added. Corticosteroids were added and cells incubated at 37°C and 5% CO2 overnight. Untreated cells were incubated with media. On Day 6, 10 ng/ml of lipopolysaccharide (LPS) was added and incubated at 37°C and 5% CO2 for 3 h followed by removal of cell media for cytokine analysis. Cytokines were measured using a Meso Scale Discovery (MSD), V-PLEX kit (V-PLEX Cat# K-15048D, www.mesoscale.com).

[2] = system: mineralocorticoid receptor; set-up: method as in PMID 30745312; details: cited from earlier work
IL-12 = assay: LPS-induced IL-12 in cultured BMDM; assay type: cell-based; details: Mus musculus, corticosteroid overnight, LPS 10 ng/ml 3 h
Text: as §1, §2

B10-mdx mice [3] = assay: Femur bone density by micro-CT (Study 2); assay type: in vivo, mouse; details: for bone density measured by microCT: 4 months of treatment
Procedure: To evaluate the similarities and differences of potential side effects of the three corticosteroids, plasma/blood were evaluated ex vivo for their effects on endogenous corticosteroid after 14 days of dosing (Study 1) and glucose levels (Study 1) after 11 days of dosing. Bone formation was measured by evaluating osteocalcin levels in Study 1 after 14 days. Bone density was measured by micro-computed tomography (micro-CT) in Study 2 after 4 months.
Study 2: The goal of the second study was to evaluate corticosteroid side effects and efficacy in a longer study (4 months). After 28 days of dosing, mice were tested for depression-like behavior using a measure of corticosteroid-induced depression (FST followed by TST). Muscle function was tested via grip strength. Tests for depression and for grip-strength were done in a blinded manner. After 4 months, mice were euthanized, and tissues were collected. Bone from whole left leg was collected for micro-CT analysis. The number of animals per group was as follows: WT, n = 16; B10-mdx, n = 15; corticosteroid-treated groups, n = 8–10.
Micro-CT analysis was performed by the Rutgers University Molecular Imaging Center (RUMIC). Briefly, skeletons were harvested at trial endpoint and stored in 70% ethanol and transferred for imaging analysis. Hindlimbs were soaked in isotonic saline solution overnight to rehydrate before imaging. […] The rotation step was 0.4° through 180° total rotation, and three images were averaged at each rotation step. Each distal femur was scanned separately, and images were saved. Scan images were reconstructed using Skyscan nRecon software.

IFN-γ = assay: LPS-induced IFN-γ in cultured BMDM; assay type: cell-based; details: Mus musculus, corticosteroid overnight, LPS 10 ng/ml 3 h
Text: as §1, §2

B10-mdx mice [4] = assay: Circulating lymphocytes and neutrophils (CBC) after 2 weeks (Study 1); assay type: in vivo, mouse
Procedure: It is understood that part of the efficacy of corticosteroids is via their impact on leukocyte trafficking, resulting in a decrease in lymphocyte and an increase in neutrophil counts in the blood within hours of drug administration. Corticostetoids regulate leukocyte trafficking via changes in adhesion molecules and cytokines, which likely reflects inhibition of NF-κB [39, 40]. The effect of the three corticosteroids on leukocyte trafficking was assessed in B10-mdx mice after 2 weeks of dosing (Study 1). No significant differences in neutrophil-to-lymphocyte ratio were seen between wildtype and B10-mdx mice (Fig. 6a).
Study 1: The goal of this study was to define the dose-response of each of the three corticosteroids. […] On Day 11, mice were fasted for 6 h and then blood was obtained to measure blood glucose. Blood glucose was measured using a glucometer (ACCU-CHECK) by tail bleeding. At the end of 14 days, mice were euthanized, and blood samples were evaluated for complete blood count (CBC) and plasma were collected for analysis of corticosterone levels, osteocalcin, creatine kinase, and cytokines. Brain, muscle, and liver were collected for RNAseq. The number of animals per group was as follows: WT, n = 15; B10-mdx, n = 11; corticosteroid-treated groups, n = 10–12.

SMILES | EC50 (IL-1β) | effect on mineralocorticoid receptor signaling [2] | EC50 (IL-12) | EC50 (IFN-γ) | % decrease in fraction of lymphocytes at Day 14 from mdx vehicle (B10-mdx mice [4]; 5 mg/kg PO daily) | % increase in fraction of PMNs at Day 14 (B10-mdx mice [4]; 5 mg/kg PO daily) | bone density measured by microCT (B10-mdx mice [3]) | % decrease in fraction of lymphocytes at Day 14 from mdx vehicle (B10-mdx mice [4]; 15 mg/kg PO daily) | % increase in fraction of PMNs at Day 14 (B10-mdx mice [4]; 15 mg/kg PO daily) | other results
C[C@]12C=CC(=O)C=C1CC[C@@H]1[C@@H]2[C@@H](O)C[C@@]2(C)[C@H]1CC[C@]2(O)C(=O)CO [Prednisolone] | 3 nM | agonist | 8.5 nM | 0.5 nM | 21%*** | 92%**** | – | – | – | diaphragm hydroxyproline (fibrosis) (B10-mdx mice [1]; 5 mg/kg): reduced fibrosis; bone density in the femur (micro-CT tissue mineral density) (B10-mdx mice [3]; 4 months, highest dose): significantly reduced bone density; % decrease in fraction of lymphocytes at Day 14 from mdx vehicle (B10-mdx mice [4]; 1.2 mg/kg PO daily): 17%**; % increase in fraction of PMNs at Day 14 (B10-mdx mice [4]; 1.2 mg/kg PO daily): 64%**; % decrease in fraction of lymphocytes at Day 14 from mdx vehicle (B10-mdx mice [4]; 2.4 mg/kg PO daily): 18%**; % increase in fraction of PMNs at Day 14 (B10-mdx mice [4]; 2.4 mg/kg PO daily): 81%***
CC(=O)OCC(=O)[C@@]12N=C(C)O[C@@H]1C[C@H]1[C@@H]3CCC4=CC(=O)C=C[C@]4(C)[C@H]3[C@@H](O)C[C@@]12C [Deflazacort] | 1.3 nM | no effect | 3.6 nM | 0.29 nM | 9%* | 41%* | not reaching significance | 19%**** | 82%**** | diaphragm hydroxyproline (fibrosis) (B10-mdx mice [1]; 5 and 15 mg/kg): reduced fibrosis; % decrease in fraction of lymphocytes at Day 14 from mdx vehicle (B10-mdx mice [4]; 1.25 mg/kg PO daily): (1%); % increase in fraction of PMNs at Day 14 (B10-mdx mice [4]; 1.25 mg/kg PO daily): 3%; % decrease in fraction of lymphocytes at Day 14 from mdx vehicle (B10-mdx mice [4]; 2.5 mg/kg PO daily): 5%; % increase in fraction of PMNs at Day 14 (B10-mdx mice [4]; 2.5 mg/kg PO daily): 32%*
C[C@@H]1C[C@H]2[C@@H]3CCC4=CC(=O)C=C[C@]4(C)C3=CC[C@]2(C)[C@@]1(O)C(=O)CO [Vamorolone] | 32 nM | antagonist | 30 nM | 0.8 nM | – | – | not reaching significance | (0.5%) | 7% | diaphragm hydroxyproline (fibrosis) (B10-mdx mice [1]; 45 mg/kg): did not reach significance; diaphragm hydroxyproline (fibrosis) (B10-mdx mice [1]; 15 and 30 mg/kg): reduced fibrosis; % decrease in fraction of lymphocytes at Day 14 from mdx vehicle (B10-mdx mice [4]; 30 mg/kg PO daily): 5%; % increase in fraction of PMNs at Day 14 (B10-mdx mice [4]; 30 mg/kg PO daily): 27%; % decrease in fraction of lymphocytes at Day 14 from mdx vehicle (B10-mdx mice [4]; 45 mg/kg PO daily): 14%**; % increase in fraction of PMNs at Day 14 (B10-mdx mice [4]; 45 mg/kg PO daily): 70%**
